The term IC50 denotes the point on the concentration scale where inhibition reaches its midpoint.

The source made the active and inactive calls. No cut-off for these calls is given here.

We go through 16 compounds from ChEMBL document CHEMBL5150026, “Selective butyrylcholinesterase inhibition by isatin dimers and 3-indolyl-3-hydroxy-2-oxindole dimers” (Bioorg Med Chem Lett, 2022).

In assay [1] the target is Acetylcholinesterase (Electrophorus electricus, UniProt O42275).
Description: Inhibition of electric eel AChE by Ellman's method
Assay [2] addresses Cholinesterase (Equus caballus, UniProt P81908).
Description: Inhibition of equine serum BuChE by Ellman's method
Assay [3] deals with Cholinesterase (Equus caballus) (UniProt P81908). Kind of assay: Mixed reversible inhibition of equine serum BuChE assessed as decrease in Vmax and increase in Km at 1.56 to 6.25 uM by Lineweaver-burk plot analysis. The note with it: dose 1.56-6.25 µM.
Chain of Cholinesterase (Equus caballus) (P81908 whole entry): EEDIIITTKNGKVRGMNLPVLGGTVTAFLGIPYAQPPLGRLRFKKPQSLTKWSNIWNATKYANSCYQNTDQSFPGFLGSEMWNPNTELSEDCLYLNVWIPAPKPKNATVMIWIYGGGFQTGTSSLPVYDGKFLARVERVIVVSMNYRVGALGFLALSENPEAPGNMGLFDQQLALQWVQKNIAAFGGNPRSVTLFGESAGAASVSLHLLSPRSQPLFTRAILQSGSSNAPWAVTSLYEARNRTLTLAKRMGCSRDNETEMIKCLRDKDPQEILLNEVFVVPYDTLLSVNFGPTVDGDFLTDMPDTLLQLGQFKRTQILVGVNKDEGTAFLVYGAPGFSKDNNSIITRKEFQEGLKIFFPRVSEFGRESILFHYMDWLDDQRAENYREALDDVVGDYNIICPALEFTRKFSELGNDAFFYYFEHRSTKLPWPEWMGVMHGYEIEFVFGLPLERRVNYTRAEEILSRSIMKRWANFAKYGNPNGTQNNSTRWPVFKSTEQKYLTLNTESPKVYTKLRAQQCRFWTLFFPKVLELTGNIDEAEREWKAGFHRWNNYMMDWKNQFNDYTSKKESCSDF
Assay [4] shares this target. As to the kind of experiment: Potency index,ratio of isatin IC50 to test compound IC50 for inhibition of equine serum BuChE.
The target is the same in assay [5]. Kind of assay: Mixed reversible inhibition of equine serum BuChE assessed as decrease in Vmax and increase in Km at 3.13 to 12.5 uM by Lineweaver-burk plot analysis. The note with it: dose 3.13-12.5 µM.

Chain of Acetylcholinesterase (O42275 whole entry): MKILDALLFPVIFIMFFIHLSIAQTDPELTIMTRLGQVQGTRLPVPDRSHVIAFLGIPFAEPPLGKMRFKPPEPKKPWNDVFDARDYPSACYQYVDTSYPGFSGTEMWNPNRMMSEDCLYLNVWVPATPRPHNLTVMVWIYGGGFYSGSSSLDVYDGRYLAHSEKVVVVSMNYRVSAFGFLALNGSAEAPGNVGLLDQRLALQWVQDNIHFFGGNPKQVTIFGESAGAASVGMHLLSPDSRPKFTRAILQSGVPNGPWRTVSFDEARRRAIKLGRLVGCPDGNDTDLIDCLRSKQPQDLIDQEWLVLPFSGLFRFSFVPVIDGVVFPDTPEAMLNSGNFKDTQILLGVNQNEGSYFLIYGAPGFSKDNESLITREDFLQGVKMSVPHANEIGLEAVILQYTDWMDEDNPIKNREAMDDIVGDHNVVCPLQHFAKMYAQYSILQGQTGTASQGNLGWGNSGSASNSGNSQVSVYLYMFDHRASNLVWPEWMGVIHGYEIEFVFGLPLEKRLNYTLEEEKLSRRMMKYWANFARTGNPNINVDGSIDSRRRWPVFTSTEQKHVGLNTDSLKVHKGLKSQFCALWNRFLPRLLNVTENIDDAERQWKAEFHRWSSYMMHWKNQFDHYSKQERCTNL
Chain of Cholinesterase (P81908 whole entry): as the sequence (P81908 whole entry) above

As for `O=C1C(=O)N(CCCCCCN2C(=O)C(=O)c3ccccc32)c2ccccc21`, the concentration for half-maximal inhibition (IC50) in assay [1] and in assay [2] was > 50 µM throughout.
In the case of `O=C1C(=O)N(CCCN2C(=O)C(=O)c3ccccc32)c2ccccc21`, the IC50 in assay [1] and in assay [2] was > 125 µM in each case.
Take `O=C1C(=O)N(CCCCCN2C(=O)C(=O)c3ccccc32)c2ccccc21`: the 50% inhibitory concentration (IC50) in assay [1] was > 50 µM; in assay [2], 7.56 µM.
As to `O=C1Nc2ccccc2C1(O)c1c[nH]c2ccccc12` (centres undefined), the results for the concentration for half-maximal inhibition (IC50) in assay [1] and in assay [2] were 1300 µM and 357 µM, respectively.
Take `O=C1C(=O)N(CCCCCCCCN2C(=O)C(=O)c3ccccc32)c2ccccc21`: the IC50 in assay [1] and in assay [2] was > 50 µM each time.
`O=C1N(CCCCCCCCN2C(=O)C(O)(c3c[nH]c4ccccc34)c3ccccc32)c2ccccc2C1(O)c1c[nH]c2ccccc12` (centres undefined): the figures for the IC50 in assay [1] and in assay [2] were > 50 µM and > 25 µM, respectively.
In the same order, the values of `O=C1N(CCCCCCN2C(=O)C(O)(c3c[nH]c4ccccc34)c3ccccc32)c2ccccc2C1(O)c1c[nH]c2ccccc12` (centres undefined) are > 50 µM and 14 µM.
For the compound `O=C1N(CCCN2C(=O)C(O)(c3c[nH]c4ccccc34)c3ccccc32)c2ccccc2C1(O)c1c[nH]c2ccccc12` (centres undefined), the values for the IC50 in assay [1] and in assay [2] were > 50 µM and 6.47 µM, respectively.
For `O=C1C(=O)N(CCCCCCCN2C(=O)C(=O)c3ccccc32)c2ccccc21`, the inhibition entry in assay [3] is “Active”. Further, the Ratio IC50 in assay [4] came out at 300. In addition, the IC50 was > 50 µM in assay [1] and 3.2 µM in assay [2].
On to `O=C1N(CCCCCN2C(=O)C(O)(c3c[nH]c4ccccc34)c3ccccc32)c2ccccc2C1(O)c1c[nH]c2ccccc12` (centres undefined), for which the inhibition entry in assay [5] is “Active”. In addition, in assay [1], the IC50 is > 50 µM.
As for `O=C1C(=O)N(CCN2C(=O)C(=O)c3ccccc32)c2ccccc21`, the IC50 in assay [1] and in assay [2] was > 125 µM throughout.
Turning to `O=C1N(CCN2C(=O)C(O)(c3c[nH]c4ccccc34)c3ccccc32)c2ccccc2C1(O)c1c[nH]c2ccccc12` (centres undefined), the IC50 in assay [1] and in assay [2] was > 50 µM each time.
Turning to `O=C1N(CCCCCCCN2C(=O)C(O)(c3c[nH]c4ccccc34)c3ccccc32)c2ccccc2C1(O)c1c[nH]c2ccccc12` (centres undefined), the IC50 was > 50 µM in assay [1] and 13.2 µM in assay [2].
As for `O=C1N(CCCCN2C(=O)C(O)(c3c[nH]c4ccccc34)c3ccccc32)c2ccccc2C1(O)c1c[nH]c2ccccc12` (centres undefined), the results for the IC50 in assay [1] and in assay [2] were > 50 µM and 11.8 µM, respectively.
For the compound `O=C1C(=O)N(CCCCN2C(=O)C(=O)c3ccccc32)c2ccccc21`, the IC50 was > 125 µM in assay [1] and 34.7 µM in assay [2].
The like results for `O=C1Nc2ccccc2C1=O` [ISATIN] were, in that order, > 1000 µM and > 1000 µM.
